Key:
Type in all cases: in vivo
[1] = system: Blumeria graminis f.sp. tritici; experiment: Greenhouse wheat powdery mildew (WPM) 2 day curative disease control; conditions: Table I; adjuvant alone, NOP 1000 ppm, BB-4 0 ppm
Source text: (§1) Greenhouse Evaluations for Fungicidal Efficacy Disease: Wheat powdery mildew (WPM). Pathogen: Blumeria graminis f.sp. tritici Test Procedure: 1. Wheat seed is planted in plastic pots and maintained in the greenhouse. 2. When the primary leaf (wheat) is fully expanded, formulated test compounds and adjuvants are sprayed with a single nozzle overhead track sprayer at a rate of 200 l/ha. Plants are then allowed to air-dry. 3. Inoculation precedes treatment by 2 days in the case of curative evaluations and follows treatment by 3-4 days in case of residual evaluations. For inoculation, plants are set up on greenhouse benches with bottom watering mats and inoculated by dusting them with conidia from powdery mildew infected plants (stock cultures at an age of 10-14 days). Between inoculation and treatment for curative evaluations and between treatment and inoculation for residual evaluations, plants are maintained in the greenhouse with bottom watering. 4. Disease on the primary leaf (wheat) as percent leaf area with disease symptoms/signs is evaluated about 7 days after inoculation. In the case of wheat, the tips and bases of the leaves are excluded from the evaluation. Percent disease control is then calculated by the following is formula: [formula] Formulation, Reference Compounds and Controls: 1. Formulated compounds are diluted using deionized water. 2. […]

[2] = system: Blumeria graminis f.sp. tritici; experiment: Greenhouse wheat powdery mildew (WPM) 4 day residual disease control; conditions: adjuvant alone, NOP 1000 ppm, BB-4 0 ppm
Source text: as §1

[3] = system: Blumeria graminis f.sp. tritici; experiment: Greenhouse wheat powdery mildew (WPM) antisporulation test; parameters: key: +++: complete (no spore release); ++: strong; +: moderate; none; conditions: Table III; adjuvant alone, NOP 1000 ppm, BB-4 0 ppm
Source text: Greenhouse Evaluations for Fungicidal Efficacy Disease: Wheat powdery mildew (WPM). Pathogen: Blumeria graminis f.sp. tritici Test Procedure: 1. Wheat seed is planted in plastic pots and maintained in the greenhouse. 2. When the primary leaf (wheat) is fully expanded, formulated test compounds and adjuvants are sprayed with a single nozzle overhead track sprayer at a rate of 200 l/ha. Plants are then allowed to air-dry. 3. Inoculation precedes treatment by 2 days in the case of curative evaluations and follows treatment by 3-4 days in case of residual evaluations. For inoculation, plants are set up on greenhouse benches with bottom watering mats and inoculated by dusting them with conidia from powdery mildew infected plants (stock cultures at an age of 10-14 days). Between inoculation and treatment for curative evaluations and between treatment and inoculation for residual evaluations, plants are maintained in the greenhouse with bottom watering. In antisporulation tests, inoculation preceeds compound application by three days. Scale for Anti-Sporulation Effect: +++=complete (no spore release); ++=strong; +=moderate; o=none.

With `CCCCCCCCN1CCCC1=O` [NOP, N-octylpyrrolidone] the “WPM 2 day Curative Disease Control (%)” value [1] was 14%, the “WPM 4 day Residual Disease Control (%)” value ([2]; Table I) was 9% and the “WPM 4 day Residual Disease Control (%)” value ([2]; Table III) was 0%. The “WPM Antisporulation Effect” value [3] was “o”.

Source: US6613806B1, “Enhancement of the efficacy of benzoylbenzenes” (BASF Corporation, priority 1999, dated 2003)
